The values below come from patent US10183941B2, “Pyrimidine or pyridopyridone compound and application thereof” (GUANGZHOU BEBETTER MEDICINE TECHNOLOGY CO., LTD., priority 2015, dated 2019).

Like-named read-outs stand apart in the source and are kept apart here.

The target in series [1] is T1, CDK4 (GST-CDK4(1-303end)/GST-CycD3(1-292end)) (Homo sapiens, UniProt P11802).
T1 construct: GST-CDK4(1-303end); purchased Carna 04-105
The series can be described thus: CDK4 activity inhibition experiment (Caliper mobility shift assay). Format: biochemical. The following applies: enzyme activity inhibition; read-out: CDK4 IC50 class.

In the next series the target is T2, CDK2 (Homo sapiens, UniProt P24941).
T2 construct: purchased Carna 04-103
The series can be described thus: CDK2 activity inhibition experiment (Caliper mobility shift assay). Format: biochemical. The conditions noted are these: enzyme activity inhibition; read-out: CDK2 IC50 class. As for the experimental part:
After being incubated at 28° C. for 60 minutes, 25 μl of stop solution was added to stop the reaction. Conversion rate data was read from Caliper EZ Reader II (Caliper Life Sciences). The conversion rate data was converted into inhibition rate data. […] The curve was plotted with compound concentration and inhibition rate as horizontal and vertical coordinates, and the IC50 was calculated by fitting the curve using XLFit excel add-in version 4.3.1 software. Inhibition rate %=(max-conversion rate)/(max-min)×100.

The test system of a further series is ZR-75-1. The series can be described thus: Tumor cell proliferation inhibition (CellTiter-Glo), ZR-75-1. Format: cell-based. The following applies: Homo sapiens, 72 hours, 10% fetal bovine serum, read-out: ZR-75-1 IC50 class. As for the experimental part:
(§1) The content of adenosine triphosphate (ATP) was determined using the CellTiter-Glo Luminescent Cell Viability Assay Kit (Promega, Madison, Wis.) to evaluate cell viability. Tumor cell lines (SW620, ZR-75-1, MDA-MB-231) were purchased from the Cell Resource Center of IBS, Fudan University, Shanghai and the American Type Culture Collection (ATCC). The cell density was determined using Scepter automated cell counter (Millipore # PHCC00000) after the cells were digested with pancreatin in cell culture dishes and resuspended in DPBS medium. The cells were diluted to a solution of 44,000 cells per ml. The cell solution of which density was adjusted was added into the cell assay plate at 90 microliters per well. The well plate was incubated in an incubator with 5% CO2 at 37° C. for 24 hours and then added with test compounds with different concentrations. The cells were incubated with the compounds in the presence of 10% fetal bovine serum for 72 hours. ATP content was assayed using the CellTiter-Glo® Luminescent Cell Viability Assay kit (see instructions of manufacturer) to assess cell growth inhibition. Briefly, 30 μl of CellTiter-Glo® reagent was added to each well, rocked for 10 minutes to induce cell lysis, and […] were detected and recorded with Fluoroskan Ascent FL (Thermo). The maximum signal value was obtained from the cells treated with dimethyl sulfoxide for 72 hours. The minimum signal value was obtained from the separate culture medium (cell number was zero). Inhibition rate %=(maximum signal value−compound signal value)/(maximum signal value−minimum signal value)×100. Data was processed using GraphPad Prism V5.0 (GraphPad Software, San Diego, Calif.) software. IC50 values were calculated by fitting S-shaped dose-response curves.

Series [2] has as its system MDA-MB-231 breast cancer cells. In words: Cell cycle inhibition experiment (PI staining, flow cytometry). Format: cell-based. The following applies: Homo sapiens, MDA-MB-231 cells, 24 h. The source says: The cell cycle and apoptosis assay kit (Beyotime, C1052) used in this experiment is an assay kit for analyzing the cell cycle and apoptosis using the classic method of Propidium staining (PI staining). Propidium (PI) is a double-stranded DNA fluorescent dye. The combination of propidium and double-stranded DNA can produce fluorescence, and fluorescence intensity is proportional to the amount of double-stranded DNA. After DNA in cells is stained with propidium, the DNA content of the cells can be measured by flow cytometry, and then the cell cycle and apoptosis can be analyzed according to the distribution of DNA content.
MDA-MB-231 cells were seeded into a 6-well plate at 3×10^5 per well and cultured for 24 hours.
In tumor cell cycle, the binding of CDK4 and CDK6 to cyclin D promotes G1 phase into S phase. CDK4/6 inhibitor selectively arrests the G1 phase of tumor cells into S phase. The detection results of the cell cycle of MDA-MB-231 breast cancer cells by flow cytometry indicate that the CDK4/6 inhibitor compounds provided by the present disclosure stop the growth of G1 phase cells and reduce S phase cells in a concentration-dependent manner, as shown in the following table.
On the technique in general: A flow cytometer gives signals particle by particle.

A further series concerns MDA-MB-231. The series can be described thus: Tumor cell proliferation inhibition (CellTiter-Glo), MDA-MB-231. Format: cell-based. The following applies: Homo sapiens, 72 hours, 10% fetal bovine serum, read-out: MDA-MB-231 IC50 class. The protocol:
as §1
For orientation: In ATP-based viability assays light output follows the ATP content of the culture.

Series [3] in a line: Pharmacokinetic (PK) experiment in rats. Format: in vivo. The following applies: male, SD, plasma, po, rat, intragastric 20 mg/kg. As for the experimental part:
Male SD rats weighing 300-350 g were fasted overnight prior to the experiment. The compounds to be tested were dissolved in 30% sulfobutyl ether-β-cyclodextrin (SBE-β-CD) and the rats were intragastric administration at 20 mg/kg. The blood was taken from the tails of the rats at 15 min, 30 min, and 1, 2, 3, 4, 6, 8 and 24 hours after administration, with about 0.3 ml of blood at each time point, and then the blood was placed in a centrifuge tube containing K2-EDTA, and centrifuged (2,000 g, 10 min, 4° C.) to take the plasma which was then stored in an ultra-low temperature freezer at −80° C. 50 μL, of plasma sample was mixed with 5 μL of internal standard (IS) and extracted with ethyl acetate. The residue was redissolved in acetonitrile after vacuum drying. The sample was filtered and injected into LC-MS/MS for analysis to determine the concentration of the compounds to be tested.
In the table: Tmax refers to the peak time, Cmax refers to the maximum plasma drug concentration, T1/2 is the half-life, AUClast refers to the area under the 0-24 hour time-concentration curve, AUCinf refers to the area under the 0-Inf time-concentration curve.

For series [4], the system named is MDA-MB-435 breast cancer cells. In words: Pharmacodynamic experiment, MDA-MB-435 xenograft. Format: in vivo, mouse. As for the experimental part: MDA-MB-435 breast cancer cells were obtained from Shanghai Cell Bank of Chinese Academy of Sciences. Cryopreserved cells were thawed in a 37° C. water bath and then placed in RPMI 1640 medium supplemented with 10% fetal bovine serum (FBS), 1% insulin (Bioman Biotech, Shanghai) and incubated in 5% CO2 of Tissue Culture Incubator. […] The sign of successful transplantation was the formation of a round bulging lump under the skin. Tumor size can be measured approximately two weeks after implantation. The tumor size was measured by a caliper.

For another series, the system named is SW620. In words: Tumor cell proliferation inhibition (CellTiter-Glo), SW620. Format: cell-based. The conditions noted are these: Homo sapiens, SW-620; 72 hours, 10% fetal bovine serum; read-out: SW620 IC50 class. The protocol:
as §1

T1 sequence (P11802 whole entry): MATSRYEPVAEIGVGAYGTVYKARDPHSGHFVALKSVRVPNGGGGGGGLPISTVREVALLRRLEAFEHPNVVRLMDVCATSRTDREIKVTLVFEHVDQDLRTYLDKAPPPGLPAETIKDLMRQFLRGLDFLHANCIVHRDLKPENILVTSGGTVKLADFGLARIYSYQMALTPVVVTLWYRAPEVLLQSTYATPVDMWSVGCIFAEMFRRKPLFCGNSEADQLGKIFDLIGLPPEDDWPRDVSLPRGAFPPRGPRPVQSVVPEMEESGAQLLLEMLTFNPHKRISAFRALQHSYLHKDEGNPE
T1 sequence (P30281 whole entry partner): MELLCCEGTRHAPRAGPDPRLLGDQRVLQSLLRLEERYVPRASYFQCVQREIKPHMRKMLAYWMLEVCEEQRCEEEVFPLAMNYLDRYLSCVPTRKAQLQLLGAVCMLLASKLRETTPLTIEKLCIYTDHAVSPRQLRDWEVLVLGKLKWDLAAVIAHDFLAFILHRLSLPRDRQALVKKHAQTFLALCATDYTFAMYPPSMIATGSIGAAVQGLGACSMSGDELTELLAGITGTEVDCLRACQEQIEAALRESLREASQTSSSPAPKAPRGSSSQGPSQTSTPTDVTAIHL

The IC50 is the midpoint of a concentration-inhibition curve. One may read the Cmax as the peak of the concentration-time curve. In general, Tmax refers to the time at which the peak concentration occurs. Usually half-life stands for the time in which the quantity being followed falls by half. A lower half-life goes with fast loss. As usually defined, the AUC(0-t) is the area under the concentration-time curve up to a stated or last time point. A lower AUC(0-t) goes with less exposure. The AUC(0-inf) is total exposure, with the tail of the curve extrapolated. Read a low AUC(0-inf) as low exposure. `CC(=O)c1c(C)c2cnc(Nc3ccc(C4CCN(CCS(C)(=O)=O)CC4)cn3)nc2n(C2CCCC2)c1=O` [Compound 1, 6-acetyl-8-cyclopentyl-5-methyl-2-((5-(1-(2-(methylsulfonyl)ethyl)piperidin-4-yl)pyridin-2-yl)amino)pyrido[2,3-d]pyrimidin-7(8H)-one]: the 50% inhibitory concentration (IC50) was less than 10 nM in series [1]; greater than 500 nM on CDK2; 100 to 500 nM in the series with ZR-75-1; 41.7 nM in series [2] (read-out: IC50 (nM) G1 arrest); 46.1 nM in series [2] (read-out: IC50 (nM) S decrease); 100 to 500 nM with MDA-MB-231. Further, the half-inhibitory concentration (IC50) in the series with SW620 fell in the range of 100 to 500 nM. The compound further displayed a peak concentration (Cmax) in series [3] of 1450 ng/mL. Further, in series [3], the time of peak concentration (Tmax) turned out to be 1.5 h. For the same compound, in series [3], the half-life is 90 min. Further, the area under the curve AUC(0-t) in series [3] (0-24 hour) is 4400 ng·h/mL. In addition, the area under the curve AUC(0-inf) in series [3] (0-Inf) was 4540 ng·h/mL. The T/C value came out at 25% in series [4] (after 14 days of oral administration, PD-0332991 150 then 100 mg/kg once daily, Compound 1 75 mg/kg twice daily) and 32% in series [4] (day 6 after discontinuation (D20)).
